Active and inactive are the calls of the source. The rule behind the calls is not given here.
Legend:
[1] = Metabolic stability in Wistar rat liver microsomes incubated for 10 mins prior to NADPH addition measured after 60 mins by LC/MS/MS analysis; assay type: ADME; settings: read-out: Stability
[2] = Oral bioavailability in Swiss albino mouse at 10 mg/kg […]; assay type: ADME, organism-based; settings: in vivo
[3] = Plasma clearance in iv dosed Sprague-Dawley rat; assay type: ADME, organism-based
Rattus norvegicus [4] = assay: Antipsychotic activity in Sprague-Dawley rat conditioned avoidance response model assessed as escape at 10 mg/kg, po measured after 2 hrs relative to vehicle-treated control; assay type: functional, organism-based; parameters: dose 10 mg/kg
[5] = Cmax in Swiss albino mouse at 10 mg/kg, po; assay type: ADME, organism-based; parameters: dose 10 mg/kg, route oral; settings: in vivo
Rattus norvegicus [6] = assay: Antipsychotic activity in po dosed Sprague-Dawley rat prepulse inhibition deficit model assessed as reversal of MK-801-induced effect administered 110 mins prior to MK-801 challenge relative to vehicle-treated control; assay type: functional
[7] = biological target: High affinity 3',5'-cyclic-AMP phosphodiesterase 7A (Homo sapiens) (UniProt Q13946); assay: Inhibition of human recombinant PDE7A using [3H]-cAMP as substrate at 1 uM after 30 mins by two-step radiometric assay
Sequence of High affinity 3',5'-cyclic-AMP phosphodiesterase 7A (Homo sapiens) (Q13946 whole entry): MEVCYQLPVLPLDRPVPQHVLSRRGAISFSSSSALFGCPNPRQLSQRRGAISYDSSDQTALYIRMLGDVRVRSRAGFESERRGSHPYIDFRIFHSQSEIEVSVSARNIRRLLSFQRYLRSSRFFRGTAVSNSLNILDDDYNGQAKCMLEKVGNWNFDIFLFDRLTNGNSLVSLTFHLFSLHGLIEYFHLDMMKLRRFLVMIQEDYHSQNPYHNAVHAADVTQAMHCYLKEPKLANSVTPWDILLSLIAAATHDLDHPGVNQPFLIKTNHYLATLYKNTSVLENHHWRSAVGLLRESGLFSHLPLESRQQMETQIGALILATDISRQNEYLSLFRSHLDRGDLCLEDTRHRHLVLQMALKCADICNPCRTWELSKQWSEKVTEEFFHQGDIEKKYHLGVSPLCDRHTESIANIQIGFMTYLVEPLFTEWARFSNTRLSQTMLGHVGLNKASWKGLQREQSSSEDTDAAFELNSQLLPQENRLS

Rattus norvegicus [8] = assay: Antipsychotic activity in Sprague-Dawley rat psychosis model assessed as reversal of MK-801-induced stereotypy at 3 mg/kg, po administered 2 hrs prior to MK-801 challenge measured every 5 mins for 1 hr starting 15 mins post MK-801 injection relative to vehicle-treated control; assay type: functional
Rattus norvegicus [9] = assay: Antipsychotic activity in Sprague-Dawley rat psychosis model assessed as reversal of MK-801-induced ataxia at 1 mg/kg, po administered 2 hrs prior to MK-801 challenge measured every 5 mins for 1 hr starting 15 mins post MK-801 injection relative to vehicle-treated control; assay type: functional
Rattus norvegicus [10] = assay: Antipsychotic activity in Sprague-Dawley rat psychosis model assessed as reversal of MK-801-induced locomotion at 3 mg/kg, po administered 2 hrs prior to MK-801 challenge measured every 5 mins for 1 hr starting 15 mins post MK-801 injection relative to vehicle-treated control; assay type: functional
[11] = biological target: T1, cAMP and cAMP-inhibited cGMP 3',5'-cyclic phosphodiesterase 10A (Mus musculus, UniProt Q8CA95); assay: Inhibition of mouse recombinant GST-tagged PDE10A using [3H]-cAMP as substrate after 30 mins by scintillation proximity assay
T1 sequence (Q8CA95 whole entry): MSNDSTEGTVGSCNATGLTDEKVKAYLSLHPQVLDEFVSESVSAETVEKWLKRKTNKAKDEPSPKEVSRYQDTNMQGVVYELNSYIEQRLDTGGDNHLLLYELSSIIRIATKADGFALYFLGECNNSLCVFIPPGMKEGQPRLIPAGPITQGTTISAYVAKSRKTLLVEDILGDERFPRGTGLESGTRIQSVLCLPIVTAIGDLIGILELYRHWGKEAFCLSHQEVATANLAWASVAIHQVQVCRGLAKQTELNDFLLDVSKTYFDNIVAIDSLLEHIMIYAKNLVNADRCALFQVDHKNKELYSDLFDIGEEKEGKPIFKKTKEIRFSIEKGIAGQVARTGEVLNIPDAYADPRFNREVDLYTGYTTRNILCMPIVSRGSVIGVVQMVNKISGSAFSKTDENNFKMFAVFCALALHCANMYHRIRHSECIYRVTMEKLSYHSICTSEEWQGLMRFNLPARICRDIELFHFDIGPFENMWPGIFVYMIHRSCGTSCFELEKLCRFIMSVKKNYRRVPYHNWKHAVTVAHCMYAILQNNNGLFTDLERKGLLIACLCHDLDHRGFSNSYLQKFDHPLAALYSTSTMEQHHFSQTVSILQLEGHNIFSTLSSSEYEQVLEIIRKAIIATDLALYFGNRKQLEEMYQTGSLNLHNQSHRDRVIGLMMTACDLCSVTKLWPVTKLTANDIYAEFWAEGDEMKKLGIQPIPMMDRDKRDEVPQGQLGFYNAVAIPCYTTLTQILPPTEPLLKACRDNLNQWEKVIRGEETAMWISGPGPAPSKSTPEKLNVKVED

[12] = biological target: cGMP-dependent 3',5'-cyclic phosphodiesterase (Homo sapiens) (UniProt O00408); assay: Inhibition of human recombinant PDE2A using cAMP as substrate at 1 uM after 30 mins by HTRF method
Sequence of cGMP-dependent 3',5'-cyclic phosphodiesterase (Homo sapiens) (O00408 whole entry): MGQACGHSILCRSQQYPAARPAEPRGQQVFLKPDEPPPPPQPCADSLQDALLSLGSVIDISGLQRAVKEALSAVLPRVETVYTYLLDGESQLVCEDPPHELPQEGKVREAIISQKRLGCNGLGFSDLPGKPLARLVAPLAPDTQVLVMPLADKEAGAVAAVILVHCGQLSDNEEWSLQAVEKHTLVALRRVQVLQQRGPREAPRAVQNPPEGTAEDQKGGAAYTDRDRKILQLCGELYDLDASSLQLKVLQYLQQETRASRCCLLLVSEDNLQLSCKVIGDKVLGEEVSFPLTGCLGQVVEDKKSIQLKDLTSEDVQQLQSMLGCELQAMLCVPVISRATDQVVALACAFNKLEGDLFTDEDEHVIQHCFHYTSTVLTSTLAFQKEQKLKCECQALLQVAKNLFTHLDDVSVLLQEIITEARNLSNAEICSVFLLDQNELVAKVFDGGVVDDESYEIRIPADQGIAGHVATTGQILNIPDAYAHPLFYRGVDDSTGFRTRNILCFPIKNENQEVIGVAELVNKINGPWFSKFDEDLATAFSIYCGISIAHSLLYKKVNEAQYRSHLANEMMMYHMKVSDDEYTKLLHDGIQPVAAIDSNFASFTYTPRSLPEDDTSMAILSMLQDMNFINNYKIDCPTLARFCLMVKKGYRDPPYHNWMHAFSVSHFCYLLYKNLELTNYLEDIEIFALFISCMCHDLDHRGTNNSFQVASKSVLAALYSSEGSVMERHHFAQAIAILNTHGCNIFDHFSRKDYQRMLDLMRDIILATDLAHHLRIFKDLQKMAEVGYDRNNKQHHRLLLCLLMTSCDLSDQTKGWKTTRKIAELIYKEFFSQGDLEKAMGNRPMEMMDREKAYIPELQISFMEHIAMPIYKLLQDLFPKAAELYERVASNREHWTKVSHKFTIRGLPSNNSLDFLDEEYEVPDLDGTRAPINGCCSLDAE

[13] = biological target: T2, cAMP and cAMP-inhibited cGMP 3',5'-cyclic phosphodiesterase 10A (Rattus norvegicus, UniProt Q9QYJ6); assay: Inhibition of rat recombinant GST-tagged PDE10A using [3H]-cAMP as substrate by scintillation proximity assay
T2 sequence (Q9QYJ6 whole entry): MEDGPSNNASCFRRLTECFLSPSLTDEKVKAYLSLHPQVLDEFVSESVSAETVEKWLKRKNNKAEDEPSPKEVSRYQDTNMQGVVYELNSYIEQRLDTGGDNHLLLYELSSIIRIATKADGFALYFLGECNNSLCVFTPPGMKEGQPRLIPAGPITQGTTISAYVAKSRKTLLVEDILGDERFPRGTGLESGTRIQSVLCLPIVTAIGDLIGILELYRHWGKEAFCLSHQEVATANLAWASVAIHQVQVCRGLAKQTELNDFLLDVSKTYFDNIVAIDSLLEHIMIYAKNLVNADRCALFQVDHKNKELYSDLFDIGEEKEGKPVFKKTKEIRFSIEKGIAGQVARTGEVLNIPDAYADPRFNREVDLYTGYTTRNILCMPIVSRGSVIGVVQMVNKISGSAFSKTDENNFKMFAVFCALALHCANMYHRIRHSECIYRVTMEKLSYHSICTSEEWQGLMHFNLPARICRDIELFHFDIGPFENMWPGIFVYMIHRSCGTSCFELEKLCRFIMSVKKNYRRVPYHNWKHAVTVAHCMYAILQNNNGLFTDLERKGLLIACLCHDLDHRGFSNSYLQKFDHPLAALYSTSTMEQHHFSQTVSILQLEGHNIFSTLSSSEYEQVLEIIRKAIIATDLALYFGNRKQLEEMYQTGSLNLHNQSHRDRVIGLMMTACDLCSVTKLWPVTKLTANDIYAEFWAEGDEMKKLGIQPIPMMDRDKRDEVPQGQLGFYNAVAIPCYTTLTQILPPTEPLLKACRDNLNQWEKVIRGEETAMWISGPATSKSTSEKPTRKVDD

[14] = biological target: cAMP and cAMP-inhibited cGMP 3',5'-cyclic phosphodiesterase 10A (Homo sapiens, UniProt Q9Y233); assay: Inhibition of human recombinant GST-tagged PDE10A using [3H]-cAMP as substrate at 1 uM after 30 mins by scintillation proximity assay
Sequence of cAMP and cAMP-inhibited cGMP 3',5'-cyclic phosphodiesterase 10A (Homo sapiens, UniProt Q9Y233) (Q9Y233 whole entry): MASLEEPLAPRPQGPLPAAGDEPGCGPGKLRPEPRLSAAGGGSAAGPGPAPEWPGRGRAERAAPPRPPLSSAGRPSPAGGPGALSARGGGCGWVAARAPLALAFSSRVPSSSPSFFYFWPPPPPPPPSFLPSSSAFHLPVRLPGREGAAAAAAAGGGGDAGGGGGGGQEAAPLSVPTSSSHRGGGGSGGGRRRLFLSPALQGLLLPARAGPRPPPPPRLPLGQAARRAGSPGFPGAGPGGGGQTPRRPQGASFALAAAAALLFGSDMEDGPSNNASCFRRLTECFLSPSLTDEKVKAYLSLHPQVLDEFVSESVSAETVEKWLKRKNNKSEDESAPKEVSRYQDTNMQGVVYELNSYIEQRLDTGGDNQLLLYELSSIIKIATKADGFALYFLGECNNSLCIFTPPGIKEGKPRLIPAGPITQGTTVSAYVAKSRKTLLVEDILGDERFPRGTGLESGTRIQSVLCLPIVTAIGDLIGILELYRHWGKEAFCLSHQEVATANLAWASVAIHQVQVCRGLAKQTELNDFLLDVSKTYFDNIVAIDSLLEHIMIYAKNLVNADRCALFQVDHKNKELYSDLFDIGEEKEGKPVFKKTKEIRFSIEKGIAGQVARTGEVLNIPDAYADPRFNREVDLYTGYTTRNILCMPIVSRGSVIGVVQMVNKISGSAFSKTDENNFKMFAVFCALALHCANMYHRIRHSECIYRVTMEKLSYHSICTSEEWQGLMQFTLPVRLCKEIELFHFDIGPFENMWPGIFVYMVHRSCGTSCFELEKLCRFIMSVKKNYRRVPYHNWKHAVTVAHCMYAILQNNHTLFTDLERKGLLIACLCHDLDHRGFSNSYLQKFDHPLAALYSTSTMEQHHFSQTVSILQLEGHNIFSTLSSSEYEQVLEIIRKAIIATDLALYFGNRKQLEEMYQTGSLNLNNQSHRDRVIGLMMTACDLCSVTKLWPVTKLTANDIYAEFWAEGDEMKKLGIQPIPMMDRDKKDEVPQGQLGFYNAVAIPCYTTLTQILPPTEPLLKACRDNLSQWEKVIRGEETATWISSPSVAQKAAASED

Rattus norvegicus [15] = assay: Antipsychotic activity in Sprague-Dawley rat prepulse inhibition deficit model assessed as reversal of MK-801-induced effect at 10 mg/kg, po administered 110 mins prior to MK-801 challenge relative to vehicle-treated control; assay type: functional; parameters: scale not given: the % may be the effect or the level left
[16] = Plasma clearance in iv dosed Swiss albino mouse; assay type: ADME, organism-based
[17] = Half life in Swiss albino mouse at 10 mg/kg, po; assay type: ADME, organism-based; parameters: dose 10 mg/kg, route oral; settings: in vivo
Rattus norvegicus [18] = assay: Antipsychotic activity in po dosed Sprague-Dawley rat psychosis model assessed as reversal of MK-801-induced locomotion administered 2 hrs prior to MK-801 challenge measured every 5 mins for 1 hr starting 15 mins post MK-801 injection relative to vehicle-treated control; assay type: functional

Cn1cc(-c2ccc(Oc3nccnc3-c3ccncc3)cc2)c2ncccc21 showed a remaining at 1 h [1] of 51%, a bioavailability [2] of 8% and a clearance [3] of 1.6 mL/min/kg. The Activity (Rattus norvegicus [4]) was “Active”, the Cmax [5] was 5490 ng/mL and the Activity (Rattus norvegicus [6]) was “Dose-dependent effect”. The ED50 (Rattus norvegicus [6]) was 1.47 mg/kg, the inhibition [7] was 2.5% and the Activity (Rattus norvegicus [8]) was 96%. For the same compound, the Activity (Rattus norvegicus [9]) was 59%, the Activity (Rattus norvegicus [10]) was 74% and the IC50 [11] was 0.0117 µM. It also gave an inhibition [12] of 3.3%, an IC50 [13] of 0.0161 µM and an inhibition [14] of 98%. The Activity (Rattus norvegicus [15]) was 88%, the clearance [16] was 68.4 mL/min/kg and the half-life [17] was 10.4 h. For the same compound, the ED50 (Rattus norvegicus [18]) was 1.63 mg/kg.
